Type in all cases: cell-based
In assay [1] the test system is COLI. The experiment in a line: Inhibiting minimum concentration (I.M.C.), activity relative to trimethoprime, OXOIDE COLI MEDIUM 4. The note with it: for % activity with respect to the base: ratio of I.M.C. to trimethoprime; for % activity with respect to the base corrected by molecular weight: ratio to trimethoprime. As to the method: (§1) The antibacterial activity of the derivatives according to the invention were tested in vitro by determining the inhibiting minimum concentrations (I.M.C.) on different germs.

A further assay concerns BACIL PUMILUS. Nature of the assay: Inhibiting minimum concentration (I.M.C.), activity relative to trimethoprime, MULLER HINTON BACIL PUMILUS MEDIUM. The note with it: for % activity with respect to the base: ratio of I.M.C. to trimethoprime; for % activity with respect to the base corrected by molecular weight: ratio to trimethoprime. The method, then:
as §1

Assay [2] relates to COLI. The experiment in a line: Inhibiting minimum concentration (I.M.C.), activity relative to trimethoprime, MULLER HINTON COLI MEDIUM 4. The note with it: for % activity with respect to the base: ratio of I.M.C. to trimethoprime; for % activity to the base corrected by molecular weight: ratio to trimethoprime. As to the method:
as §1

Turning to `COc1cc(C(Nc2ncc(Cc3cc(OC)c(OC)c(OC)c3)c(N)n2)S(=O)(=O)O)ccc1O` (stereo not shown) [Example 21, N2 (4-Hydroxy 3-Methoxy) Phenyl Methane Sulfonic Acid of 2,4-Diamino 5-(3,4,5-Trimethoxy Benzyl) Pyrimidine], in the assay on COLI [1], the “% activity with respect to the base” value was found to be 49.8% and the “% activity with respect to the base corrected by molecular weight” value turned out to be 90%. For the same molecule, in the assay with BACIL PUMILUS, the “% activity with respect to the base” value came to 34.6% and the “% activity with respect to the base corrected by molecular weight” value worked out at 63%. Besides, in the assay with COLI [2], the “% activity with respect to the base” value is given as 43.3% and the “% activity to the base corrected by molecular weight” value (shortened to “% activity to the base corrected”) was found to be 79%.
As for `COc1cc(Cc2cnc(NC(c3ccccc3O)S(=O)(=O)O)nc2N)cc(OC)c1OC` (stereo not shown) [Example 25e, N2 (2-HYDROXY) PHENYL METHANE SULFONIC ACID OF 5-(3,4,5-TRIMETHOXY BENZYL) 2,4-DIAMINO PYRIMIDINE], in the assay with COLI [1], the “% activity with respect to the base” value is listed as 36.6% and the “% activity with respect to the base corrected by molecular weight” value worked out at 74%. Besides, in the assay with BACIL PUMILUS, the “% activity with respect to the base” value was determined as 75.8% and the “% activity with respect to the base corrected by molecular weight” value was 154%. In the assay with COLI [2], the “% activity with respect to the base” value is recorded as 45.8% and the “% activity to the base corrected” value turned out to be 93%.
On to `COc1cc(Cc2cnc(NC(c3cccc([N+](=O)[O-])c3)S(=O)(=O)O)nc2N)cc(OC)c1OC` (stereo not shown) [Example 13, N2 (3-Nitro Phenyl) Methane Sulfonic Acid of 2,4-Diamino 5-(3,4,5-Trimethoxy Benzyl) Pyrimidine], for which, in the assay with COLI [1], the “% activity with respect to the base” value worked out at 32.5% and the “% activity with respect to the base corrected by molecular weight” value turned out to be 59%. Also, in the assay with BACIL PUMILUS, the “% activity with respect to the base” value is listed as 23.2% and the “% activity with respect to the base corrected by molecular weight” value stood at 42%. In the assay on COLI [2], the “% activity with respect to the base” value is 17.2% and the “% activity to the base corrected” value is listed as 31%.
Regarding `COc1cc(Cc2cnc(NC(c3cccs3)S(=O)(=O)O)nc2N)cc(OC)c1OC` (stereo not shown) [Example 20, N2 (2-Thienyl) Methane Sulfonic Acid of 2,4-Diamino 5-(3,4,5-Trimethoxy Benzyl) Pyrimidine], the “% activity with respect to the base” value in the assay on COLI [1] was determined as 62.6%; with BACIL PUMILUS it was 83.4%; in the assay on COLI [2], 73.5%. The “% activity with respect to the base corrected by molecular weight” value in the assay on COLI [1] stood at 105%; in the assay on BACIL PUMILUS, 140%. Besides, in the assay with COLI [2], the “% activity to the base corrected” value is on record as 123%.
In the case of `COc1cc(Cc2cnc(NC(c3ccccc3Cl)S(=O)(=O)O)nc2N)cc(OC)c1OC` (stereo not shown) [Example 9, N2 (2-Chloro Phenyl) Methane Sulfonic Acid of 2,4-Diamino 5-(3,4,5-Trimethoxy Benzyl) Pyrimidine], in the assay with COLI [1], the “% activity with respect to the base” value came to 14.7% and the “% activity with respect to the base corrected by molecular weight” value is on record as 26%. Moreover, in the assay on BACIL PUMILUS, the “% activity with respect to the base” value is 14.1% and the “% activity with respect to the base corrected by molecular weight” value is recorded as 25%. Further, in the assay with COLI [2], the “% activity with respect to the base” value is on record as 13.3% and the “% activity to the base corrected” value stood at 23%.
As to `COc1cc(Cc2cnc(NC(c3ccccc3O)S(=O)(=O)O)nc2N)cc(OC)c1OC` (stereo not shown) [Example 25c, N2 (2-HYDROXY) PHENYL METHANE SULFONIC ACID OF 5-(3,4,5-TRIMETHOXY BENZYL) 2,4-DIAMINO PYRIMIDINE], in the assay on COLI [2], the “% activity with respect to the base” value was 57% and the “% activity to the base corrected” value worked out at 116%.
Consider `COc1cc(Cc2cnc(NC(c3cccc(Cl)c3)S(=O)(=O)O)nc2N)cc(OC)c1OC` (stereo not shown) [Example 10, N2 (3-Chloro Phenyl) Methane Sulfonic Acid of 2,4-Diamino 5-(3,4,5-Trimethoxy Benzyl) Pyrimidine], for which, in the assay with COLI [1], the “% activity with respect to the base” value was found to be 14.1% and the “% activity with respect to the base corrected by molecular weight” value is listed as 25%. Also, in the assay with BACIL PUMILUS, the “% activity with respect to the base” value is on record as 10.4% and the “% activity with respect to the base corrected by molecular weight” value worked out at 18%. In the assay with COLI [2], the “% activity with respect to the base” value is given as 11.6% and the “% activity to the base corrected” value is listed as 20%.
For `CCOc1cc(C(Nc2ncc(Cc3cc(OC)c(OC)c(OC)c3)c(N)n2)S(=O)(=O)O)ccc1O` (stereo not shown) [Example 24e, N2 (3-Ethoxy 4-Hydroxy) Phenyl Methane Sulfonic Acid of 5-(3,4,5-Trimethoxy Benzyl) 2,4-Diamino Pyrimidine], in the assay on COLI [1], the “% activity with respect to the base” value turned out to be 21.3% and the “% activity with respect to the base corrected by molecular weight” value is reported as 46%. In the assay with BACIL PUMILUS, the “% activity with respect to the base” value worked out at 40.0% and the “% activity with respect to the base corrected by molecular weight” value is reported as 86%. In the assay on COLI [2], the “% activity with respect to the base” value is listed as 40.0% and the “% activity to the base corrected” value was 86%.
For the molecule `COc1cc(Cc2cnc(NC(c3ccc(Cl)cc3)S(=O)(=O)O)nc2N)cc(OC)c1OC` (stereo not shown) [Example 11, N2 (4-Chloro Phenyl) Methane Sulfonic Acid of 2,4-Diamino 5-(3,4,5-Trimethoxy Benzyl) Pyrimidine], the “% activity with respect to the base” value with COLI [1] was 25.6%; in the assay on BACIL PUMILUS, 23%; in the assay with COLI [2], 17.6%. Besides, the “% activity with respect to the base corrected by molecular weight” value came to 45% with COLI [1] and 41% in the assay with BACIL PUMILUS. The “% activity to the base corrected” value with COLI [2] is listed as 31%.
For the molecule `CCC(C)C(C)C(Nc1ncc(Cc2cc(OC)c(OC)c(OC)c2)c(N)n1)S(=O)(=O)O` (stereo not shown) [Example 6, N2 (2,3-Dimethyl) Pentane Sulfonic Acid of 2,4-Diamino 5-(3,4,5-Trimethoxy Benzyl) Pyrimidine], in the assay on COLI [1], the “% activity with respect to the base” value is given as 18.8% and the “% activity with respect to the base corrected by molecular weight” value turned out to be 32%. Further, in the assay on BACIL PUMILUS, the “% activity with respect to the base” value turned out to be 16.6% and the “% activity with respect to the base corrected by molecular weight” value worked out at 28%. Moreover, in the assay with COLI [2], the “% activity with respect to the base” value came out at 15.75% and the “% activity to the base corrected” value amounted to 27%.
As for `COc1cc(Cc2cnc(NCS(=O)(=O)O)nc2N)cc(OC)c1OC` [Example 1, N2 Methane Sulfonic Acid of 2,4-Diamino 5-(3,4,5-TrimethoxyBenzyl) Pyrimidine], in the assay with COLI [1], the “% activity with respect to the base” value amounted to 17.1% and the “% activity with respect to the base corrected by molecular weight” value came to 24%. In addition, the “% activity with respect to the base” value with BACIL PUMILUS came to 0.1%. Further, in the assay on COLI [2], the “% activity with respect to the base” value was determined as 0.3% and the “% activity to the base corrected” value was 0.4%.
On to `COc1cc(Cc2cnc(NC(c3ccccc3O)S(=O)(=O)O)nc2N)cc(OC)c1OC` (stereo not shown) [Example 25d, N2 (2-HYDROXY) PHENYL METHANE SULFONIC ACID OF 5-(3,4,5-TRIMETHOXY BENZYL) 2,4-DIAMINO PYRIMIDINE], for which, in the assay on COLI [1], the “% activity with respect to the base” value stood at 28.3% and the “% activity with respect to the base corrected by molecular weight” value turned out to be 53%. In the assay with BACIL PUMILUS, the “% activity with respect to the base” value was determined as 55.5% and the “% activity with respect to the base corrected by molecular weight” value was determined as 104%. Also, in the assay with COLI [2], the “% activity with respect to the base” value came to 45.4% and the “% activity to the base corrected” value is on record as 85%.
With `CCCC(Nc1ncc(Cc2cc(OC)c(OC)c(OC)c2)c(N)n1)S(=O)(=O)O` (stereo not shown) [Example 3, N2 Butane Sulfonic Acid of 2,4-Diamino 5-(3,4,5-Trimethoxy Benzyl) Pyrimidine], in the assay with COLI [1], the “% activity with respect to the base” value is 18.35% and the “% activity with respect to the base corrected by molecular weight” value was determined as 28%. Moreover, in the assay with BACIL PUMILUS, the “% activity with respect to the base” value is 2.9% and the “% activity with respect to the base corrected by molecular weight” value was 6.8%. For the same molecule, in the assay with COLI [2], the “% activity with respect to the base” value was determined as 4.55% and the “% activity to the base corrected” value is 10.8%.
Consider `CCOc1cc(C(Nc2ncc(Cc3cc(OC)c(OC)c(OC)c3)c(N)n2)S(=O)(=O)O)ccc1O` (stereo not shown) [Example 24d, N2 (3-Ethoxy 4-Hydroxy) Phenyl Methane Sulfonic Acid of 5-(3,4,5-Trimethoxy Benzyl) 2,4-Diamino Pyrimidine], for which, in the assay on COLI [1], the “% activity with respect to the base” value was 13.1% and the “% activity with respect to the base corrected by molecular weight” value came out at 26%. Moreover, in the assay with BACIL PUMILUS, the “% activity with respect to the base” value is recorded as 37.0% and the “% activity with respect to the base corrected by molecular weight” value was determined as 74%. Moreover, in the assay on COLI [2], the “% activity with respect to the base” value was determined as 23.2% and the “% activity to the base corrected” value was determined as 46%.
For the molecule `COc1cc(Cc2cnc(NC(c3ccc([N+](=O)[O-])cc3)S(=O)(=O)O)nc2N)cc(OC)c1OC` (stereo not shown) [Example 12, N2 (4-Nitro Phenyl) Methane Sulfonic Acid of 2,4-Diamino 5-(3,4,5-Trimethoxy Benzyl) Pyrimidine], in the assay on COLI [1], the “% activity with respect to the base” value was determined as 11.7% and the “% activity with respect to the base corrected by molecular weight” value came to 21%. For the same molecule, in the assay on BACIL PUMILUS, the “% activity with respect to the base” value is reported as 11.9% and the “% activity with respect to the base corrected by molecular weight” value worked out at 22%. Also, in the assay on COLI [2], the “% activity with respect to the base” value is 18.1% and the “% activity to the base corrected” value is listed as 32%.
For `COc1cc(Cc2cnc(NC(C)S(=O)(=O)O)nc2N)cc(OC)c1OC` (stereo not shown) [Example 2, N2 Ethane Sulfonic acid of 2,4-Diamino 5-(3,4,5-Trimethoxy Benzyl) Pyrimidine], the figures for the “% activity with respect to the base” value in the assay with COLI [1], in the assay with BACIL PUMILUS and in the assay on COLI [2] were 4%, 2.8% and 4.3%, respectively. The “% activity with respect to the base corrected by molecular weight” value in the assay with COLI [1] was determined as 5.8%; in the assay on BACIL PUMILUS it was 4%. Also, the “% activity to the base corrected” value in the assay on COLI [2] is 6.2%.
For the molecule `COc1cc(Cc2cnc(NC(c3cc(OC)c(OC)c(OC)c3)S(=O)(=O)O)nc2N)cc(OC)c1OC` (stereo not shown) [Example 17, N2 (3,4,5-Trimethoxy Phenyl) Methane Sulfonic Acid 2,4-Diamino 5-(3,4,5-Trimethoxy Benzyl) Pyrimidine], the “% activity with respect to the base” value worked out at 34.8% in the assay with COLI [1], 42.7% with BACIL PUMILUS and 24.3% with COLI [2]. Further, the “% activity with respect to the base corrected by molecular weight” value in the assay on COLI [1] was 68%; with BACIL PUMILUS, 84%. In addition, the “% activity to the base corrected” value with COLI [2] worked out at 48%.

For the origin of these results see patent publication US4415574A, “Soluble N2 substituted derivatives of 2,4-diamino 5-benzyl pyrimidine, process for their preparation and medicaments containing them” (S. A. Panmedica, priority 1981, dated 1983).
